According to patent US20100093637A1, “PEPTIDES AND USE THEREOF” (priority 2005, published 2010):

Test system: Human fibroblasts
Assay: Stimulation of collagen synthesis measured by incorporation of tritiated proline in fibroblast collagenic fractions
Type: cell-based
Conditions: 72 hours of treatment
Protocol: The stimulation of collagen synthesis by peptides of the present invention was evaluated by measuring the incorporation of tritiated proline in fibroblasts collagenic fractions. The assay was conducted as follows. Human fibroblasts (obtained from the human biopsy of a person) were seeded in 24-well plates at approximately 40,000 cells per well in 1 ml of culture medium. The culture medium contained DMEM (Invitrogen S.a.r.l., Cergy Pontoise, France) supplemented with 10% Fetal Calf Serum (FCS, Cambrex Bio Science Paris S.a.r.l., Emerainville, France), 1% Glutamax (Invitrogen S.a.r.l.), 4 μg/ml gentamicine (Invitrogen S.a.r.l.), and 2.5 μg/ml Fungizone (Invitrogen S.a.r.l.). Cells were placed at 37° C. under 5% CO2 in a humidified atmosphere for 72 hours.
The culture medium was the removed and replaced with 1 ml of either: (i) incubation medium alone (untreated control); (ii) incubation medium further containing 1 ng/ml TGFb1 (R&D Systems Europe, Lille, France) for use as a stimulated positive control; or (iii) incubation medium further containing one of the tested peptides at a concentration of 1 μg/ml or 10 μg/ml. The incubation medium contained DMEM supplemented with 2% FCS, 1% Glutamax, 4 μg/ml gentamicine, 2.5 μg/ml Fungizone, 50 μg/ml ascorbic acid, 50 μg/ml b-aminoproionitrile, and 3.4 μg/ml a ketoglutarate.
During the last 24 hours of incubation, five μCi of tritiated proline (L-2,3-3H proline, Amersham Biosciences Europe, Saclay, France) was also added to each well. Each condition (untreated control, positive control and tested peptide) was performed in triplicate. In order to normalize the results, the same experiment was performed in parallel, except that tritiated proline was omitted. At the end of the treatment, cells were counted with a coulter counter. After 72 hours of treatment, incubation medium (supernatants) were collected in 2 ml microtubes and frozen at −20° C.
In order to perform the collagen extraction, 1 ml of cold 20% TCA (Sigma-Aldrich, Lyon, France) was added to 1 ml of supernatant. The samples were then vortexed, incubated for 5 minutes (min) at −20° C., and let stand on ice for 30 min. The samples were then centrifuged (2300 g, 5 min, 4° C.). The supernatants were then eliminated, and the pellets were rinsed with 1 ml of cold 5% TCA, vortexed, and centrifuged (2300 g, 5 min, 4° C.). The pellets were then rinsed twice with 5% TCA following the same procedure as described above. The pellets were then dissolved in 0.3 ml of 0.05 N NaOH and neutralized with 0.1N HCl to reach pH 6-8. Then, 0.2 ml of protein solution was incubated for 2 hours at 37° C. in 2×Tris HCl Buffer containing 10 units of collagenase activity (Clostridium hystolyticum Type III collagenase, Sigma-Aldrich, Lyon, France).
The enzymatic reaction was then stopped by precipitation with 500 μl of 15% TCA and 500 μl of 0.75% tannic acid. Samples were then incubated 30 min on ice. The precipitates were then centrifuged (2300 g, 5 min, 4° C.). The supernatants containing collagen fractions were collected, and scintillation liquid (Ecolume ICN) was added to each sample (5 ml to 100 μl sample). Then, radioactivity was measured in a β-scintillation counter.
The rate of collagen synthesis was calculated as follows: Synthesis rate=(number of dpm/cell number)*1000
The percentage of stimulation was calculated as follows: % of stimulation=[(synthesis rate in sample-synthesis rate in control)/(synthesis rate in control)]*100.

[1] = peptide at 1 ug/ml in incubation medium
[2] = peptide at 10 ug/ml in incubation medium

| Substance | Percent stimulation vs. control [1] | Percent stimulation vs. control (peptide at 1 ug/ml in incubation medium, listed as TRNDKL) | Percent stimulation vs. control [2] | Percent stimulation vs. control (peptide at 10 ug/ml in incubation medium, listed as TRNDKL) | Percent stimulation vs. control (peptide at 1 ug/ml in incubation medium, listed as VFTRN) | Percent stimulation vs. control (peptide at 10 ug/ml in incubation medium, listed as VFTRN) | Percent stimulation vs. control (1 ng/ml in incubation medium, positive control) | Percent stimulation vs. control (1 ng/ml in incubation medium, positive control, listed as TGFb) |
| --- | --- | --- | --- | --- | --- | --- | --- | --- |
| H2-Thr-Arg-Asn-Asp-Lys-Leu-OH (H-TRNDKL-OH) [Peptide 2] | 23.5% | 25% | 42.6% | 42% | – | – | – | – |
| H2-Val-Arg-Phe-Thr-Arg-Asn-OH (H-VRFTRN-OH) [Peptide 1] | 14.8% | – | 43.1% | – | 15% | 43% | – | – |
| TGF b: potent stimulator of collagen synthesis in dermal fibroblast used as positive control [reference compound] | – | – | – | – | – | – | 45.7% | 45% |
